# Data taken from ChEMBL document CHEMBL1821712, “Antimalarial β-carbolines from the New Zealand ascidian Pseudodistoma opacum” (J Nat Prod, 2011).
# Test system: Trypanosoma brucei rhodesiense
# Assay: Antiparasitic activity against Trypanosoma brucei rhodesiense STIB 900 trypomastigotes stage forms incubated for 72 hrs by Alamar blue staining based fluorometric assay
# Format: functional, organism-based
# Conditions: STIB 900, 72 h
row,Structure (SMILES),IC50
1,N=C(N)NCCCCc1nccc2c1[nH]c1ccccc12,12 µM
2,N=C(N)NCCCc1nccc2c1[nH]c1ccccc12,7.7 µM
3,O=C1c2ccccc2C(=O)N1CCCC1NCCc2c1[nH]c1ccccc21 (stereo not given),17 µM
4,N=C(N)NCCCCc1nccc2c1[nH]c1cc(Br)ccc12 [OPACALINE A],30 µM
5,N=C(N)NCCCCc1nccc2c3ccc(Br)cc3n(O)c12 [OPACALINE B],27 µM

# Test system: Plasmodium falciparum
# Assay: Antiparasitic activity against chloroquine-resistant Plasmodium falciparum Dd2
# Format: functional, organism-based
# Conditions: not given
row,Structure (SMILES),IC50
1,N=C(N)NCCC[C@H]1NCCc2c1[nH]c1cc(Br)ccc21,5.4 µM

# Test system: Plasmodium falciparum
# Assay: Antiparasitic activity against chloroquine-sensitive Plasmodium falciparum 3D7
# Format: functional, organism-based
# Conditions: not given
row,Structure (SMILES),IC50
1,N=C(N)NCCC[C@H]1NCCc2c1[nH]c1cc(Br)ccc21,3.5 µM

# Test system: Leishmania donovani
# Assay: Antiparasitic activity against Leishmania donovani MHOM/ET/67/L82 amastigotes/axenic stage forms incubated for 72 hrs by Alamar Blue staining based fluorometric assay
# Format: functional, organism-based
# Conditions: MHOM/ET/67/L82, 72 h
row,Structure (SMILES),IC50
1,N=C(N)NCCCCc1nccc2c1[nH]c1ccccc12,> 200 µM
2,N=C(N)NCCCc1nccc2c1[nH]c1ccccc12,> 200 µM
3,O=C1c2ccccc2C(=O)N1CCCC1NCCc2c1[nH]c1ccccc21 (stereo not given),150 µM
4,CCCCCCCCCCCCCCCCOP(=O)([O-])OCC[N+](C)(C)C [MILTEFOSINE],0.53 µM
5,N=C(N)NCCCCc1nccc2c1[nH]c1cc(Br)ccc12 [OPACALINE A],130 µM
6,N=C(N)NCCCCc1nccc2c3ccc(Br)cc3n(O)c12 [OPACALINE B],101 µM

# Test system: Trypanosoma cruzi
# Assay: Antiparasitic activity against Trypanosoma cruzi Tulahuen C4 amastigotes stage forms incubated for 96 hrs by beta-galactosidase reporter gene assay
# Format: functional, organism-based
# Conditions: Tulahuen C4, 96 h
row,Structure (SMILES),IC50
1,N=C(N)NCCCCc1nccc2c1[nH]c1ccccc12,110 µM
2,N=C(N)NCCCc1nccc2c1[nH]c1ccccc12,130 µM
3,O=C1c2ccccc2C(=O)N1CCCC1NCCc2c1[nH]c1ccccc21 (stereo not given),51 µM
4,O=C(Cn1ccnc1[N+](=O)[O-])NCc1ccccc1 [BENZNIDAZOLE],1.8 µM
5,N=C(N)NCCCCc1nccc2c1[nH]c1cc(Br)ccc12 [OPACALINE A],86 µM
6,N=C(N)NCCCCc1nccc2c3ccc(Br)cc3n(O)c12 [OPACALINE B],107 µM

# Test system: Plasmodium falciparum
# Assay: Antiparasitic activity against Plasmodium falciparum K1 IEF stage forms incubated for 72 hrs by Alamar Blue staining based fluorometric assay
# Conditions: K1, 72 h
row,Structure (SMILES),IC50
1,N=C(N)NCCCCc1nccc2c1[nH]c1ccccc12,6.4 µM
2,N=C(N)NCCCc1nccc2c1[nH]c1ccccc12,7.8 µM
3,O=C1c2ccccc2C(=O)N1CCCC1NCCc2c1[nH]c1ccccc21 (stereo not given),14 µM
4,N=C(N)NCCCCc1nccc2c1[nH]c1cc(Br)ccc12 [OPACALINE A],2.5 µM
5,N=C(N)NCCCCc1nccc2c3ccc(Br)cc3n(O)c12 [OPACALINE B],4.5 µM

# Test system: L6
# Assay: Cytotoxicity against rat L6 cells incubated for 72 hrs by Alamar Blue staining based fluorometric assay
# Format: cell-based
# Conditions: L6, 72 h
row,Structure (SMILES),IC50
1,N=C(N)NCCCCc1nccc2c1[nH]c1ccccc12,84 µM
2,N=C(N)NCCCc1nccc2c1[nH]c1ccccc12,101 µM
3,O=C1c2ccccc2C(=O)N1CCCC1NCCc2c1[nH]c1ccccc21 (stereo not given),110 µM
4,N=C(N)NCCCCc1nccc2c1[nH]c1cc(Br)ccc12 [OPACALINE A],79 µM
5,N=C(N)NCCCCc1nccc2c3ccc(Br)cc3n(O)c12 [OPACALINE B],120 µM
6,COc1cc([C@@H]2c3cc4c(cc3[C@H](O)[C@H]3COC(=O)[C@H]23)OCO4)cc(OC)c1OC [PODOFILOX],0.019 µM
